Assays:
Oryza sativa [1] = assay: Growth retardation of rice seedlings assessed as second leaf sheath length at 1 nmol after 72 hrs exposure to continuous fluorescent light relative to control; assay type: functional
Oryza sativa [2] = assay: Growth retardation of rice seedlings assessed as reduction in second leaf sheath length at 1 nmol after 72 hrs exposure to continuous fluorescent light relative to water; assay type: functional; set-up: scale not given: the % may be the effect or the level left

Row | Compound | Activity (Oryza sativa [1]) | Activity (Oryza sativa [2])
1 | C[C@H]1[C@H]2[C@H](Cc3ccccc3)NC(=O)[C@]23[C@H](O)/C=C/[C@@](C)(O)C(=O)[C@@H](C)C/C=C/[C@H]3C(=O)[C@@H]1C | 94% | –
2 | CC1=C(C)[C@H]2[C@H](Cc3ccccc3)NC(=O)[C@]23[C@H](O)/C=C/[C@@](C)(O)C(=O)[C@@H](C)C/C=C/[C@H]3[C@@H]1O [DEACETYLCYTOCHALASIN C] | 83% | –
3 | C=C1[C@@H](C)[C@H]2[C@H](Cc3ccccc3)NC(=O)[C@]23[C@H](O)/C=C/[C@@](C)(O)C(=O)[C@@H](C)C/C=C/[C@H]3[C@@H]1O [ZYGOSPORIN D] | – | 41%

— ChEMBL document CHEMBL1155666, “Zygosporin D and two new cytochalasins produced by the fungus Metarrhizium anisopliae” (2000)
